{"source": "patent US10576052B2", "about": "“Composition preventing bacterial inflammation in monogastric animals” (PERSTORP AB, priority 2015, dated 2020)", "key": {"[1]": {"system": "Salmonella", "test": "In vitro Salmonella growth inhibition", "assay_type": "cell-based"}, "[2]": {"system": "GLP-2 positive cells in the small intestine (jejunum and ileum)", "test": "Quantification of GLP-2 positive cells in villi and crypts of jejunum and ileum of broiler chickens fed supplemented feed", "assay_type": "in vivo, Ross broiler chickens", "conditions": "5.6 g/kg feed from day of hatch, sampled at age of ten days", "description": "[…] one-day-old Ross broiler chickens were obtained from a local hatchery. The animals were divided at random in two equal groups: one experimental groups, and one control group. The groups were housed on wood shavings in separate containers of 0.96 m^2. Commercial feed and drinking water was provided ad libitum, From the day of hatch, the experimental group received feed supplemented with glyceryl monovalerate (MV; Perstorp, 5.6 g/kg feed), according to the suppliers recommendations (in-feed supplementation). The control group, received unsupplemented feed. At the age of ten days, the animals were killed by injecting an intravenous overdose of pentobarbital and sampling was performed. Samples (1 cm in length) of jejunum and ileumn were submerged in 4% phosphate buffered (wt/vol) formaldehyde within 15 minutes after euthanasia. […] For each animal, the area of 10 randomly chosen villi and 30 randomly chosen crypts was measured for jejunum and ileum using LAS V3.8 software (Leica Microsystems GmbH, Wetzlar, Germany). In total 80 areas per bird were analysed. For every defined area, the number of cells was counted at magnification ×400. Only cells with a detectable nucleus were counted. The average number of cells per area villus or crypt (cells/mm^2) was calculated for each bird. […]"}, "[3]": {"system": "HilA expression", "test": "Invasive gene expression (HilA expression) in Salmonella", "assay_type": "cell-based"}}}
{"compound": "CCCCC(=O)OCC(O)CO", "note": "(stereo not shown) [glyceryl monovalerate]", "values": [{"measurement": "inhibition of Salmonella growth", "setting": "[1]", "value": "effective inhibitor"}, {"measurement": "average number of GLP-2 positive cells in the villi of jejunum and ileum, experimental group vs control group", "setting": "[2]; P≤0.001, FIG. 1", "value": "statistically higher"}, {"measurement": "average numbers of GLP2-positive cells in the crypts of jejunum and ileum, experimental group vs control group", "setting": "[2]; P≤0.05, FIG. 2", "value": "statistically higher"}, {"measurement": "invasive gene expression (HilA expression) in Salmonella", "setting": "[3]", "value": "down-regulated"}]}
